From patent US20250101017A1, “SALT CRYSTAL FORM AND FREE BASE CRYSTAL FORM OF KINASE INHIBITOR” (CYTOSINLAB THERAPEUTICS CO., LTD., priority 2022, published 2025)
Read-outs that look alike come from different tables or passages of the source.

Tests used:
Assay type in all cases: physicochemical
[1] = Solid stability of crystal forms (80° C., light exposure, 25° C./60% RH, 40° C./75% RH); purity by liquid chromatography and XRPD of the solids
Procedure: A certain amount of API and malate crystal form VII-A were weighed and added into a liquid phase vial, and a total of 9 parallels were prepared. The 9 parallels were placed separately in 80° C. (open); 25° C., 60% RH (open); 40° C., 75% RH (open); and light stability box closed). The stabilities under conditions of: 80° C. for one day, light exposure for 10 days, as well as 25° C., 60% RH and 40° C., 75% RH for one and two weeks were tested, and the XRPD of the solids were measured.
A certain amount of crystal form B was weighed and added into a liquid phase vial, and a total of 9 parallels were prepared. 9 parallels were placed separately in 80° C.; 25° C., 60% RH, 40° C., 75% RH; and light stability boxe.

[2] = Competitive pulping of API (free base Form A) and Form B in saturated DCM or water solution at 50° C., XRPD
Procedure: A saturated solution of API (free base Form A) in DCM and water was prepared. Approximately 10 mg of API (free base Form A) and free base crystal form Form B was weighed respectively and added into a 4 ml glass bottle, and 1 mL of the saturated solution was added. […] The resulting solid was subjected to XRPD testing.

[3] = Dynamic moisture adsorption (DVS), hygroscopicity; details: DVS; for moisture absorption weight gain: 80% RH humidity
Procedure: DSV pattern determination method: Dynamic moisture adsorption was performed using Intrinsic DVS. In step mode, the sample is subjected to loop testing at a relative humidity of 0-90%. The sample is analyzed at 10% RH. The dm/dt is set to 0.002 to achieve equilibrium between the sample and the room environment.
Approximately 250 mg of API was weighed and added into a 4 ml glass vial, and 2.5 ml of ethyl acetate was added. The mixture was stirred overnight under magnetic stirring at 50° C., cooled to room temperature, and then filtered, and the obtained solid was dried in vacuum overnight in a 50° C. oven. The resulting solid was free base crystal form Form B. The free base crystal form Form B was subjected to various characterization.

[4] = Solubility at 37° C. in buffer solutions with different pH (about 10 mg in 1 ml, 2 h and 24 h); filtrate concentration and pH, XRPD of remaining solid; details: thermodynamic from solid, read-out: Solubility at 37° C.
Procedure: Approximately 10 mg of malate crystal form VII-A and free base Form A were weighed separately, and 1 ml of buffer solutions with different pH were added to make the solution supersaturated, and the mixtures were stirred at 37° C. for 2 h and 24 hours. The samples were filtered, and the filtrates were measured to determine the concentration and pH value, and the remaining solid was subjected to XRPD determination. The specific results were as follows: […]

[5] = 25° C., 60% RH, 1 week, listed as API
[6] = 25° C., 60% RH, 2 weeks, listed as API
[7] = 40° C., 75% RH, 1 week, listed as API
[8] = 40° C., 75% RH, 2 weeks, listed as API
[9] = Light control, 10 days, listed as API
[10] = Light exposure, 10 days, listed as API

Degradation (%) ([1]; 25° C., 60% RH (open), 1 week): 0.03% | Purity (%) ([1]; 25° C., 60% RH (open), 1 week): 95.50% | Crystal form ([1]; 25° C., 60% RH (open), 1 week, XRPD): Unchanged | Degradation (%) ([1]; 25° C., 60% RH (open), 2 weeks): 0.04% | Purity (%) ([1]; 25° C., 60% RH (open), 2 weeks): 95.49% | Crystal form ([1]; 25° C., 60% RH (open), 2 weeks, XRPD): Unchanged | Crystal form ([1]; 25° C., 60% RH, 1 week): Unchanged | Degradation [1, 5]: 0.03% | Purity [1, 5]: 95.50% | Crystal form ([1]; 25° C., 60% RH, 2 weeks): Unchanged | Degradation [1, 6]: 0.04% | Purity [1, 6]: 95.49% | Degradation (%) ([1]; 40° C., 75% RH (open), 1 week): 0.04% | Purity (%) ([1]; 40° C., 75% RH (open), 1 week): 95.49% | Crystal form ([1]; 40° C., 75% RH (open), 1 week, XRPD): Unchanged | Degradation (%) ([1]; 40° C., 75% RH (open), 2 weeks): 2.93% | Purity (%) ([1]; 40° C., 75% RH (open), 2 weeks): 92.60% | Crystal form ([1]; 40° C., 75% RH (open), 2 weeks, XRPD): Unchanged | Crystal form ([1]; 40° C., 75% RH, 1 week): Unchanged | Degradation [1, 7]: 0.04% | Purity [1, 7]: 95.49% | Crystal form ([1]; 40° C., 75% RH, 2 weeks): Unchanged | Degradation [1, 8]: 2.93% | Purity [1, 8]: 92.60% | Degradation (%) ([1]; 80° C. (open), 1 day): 0.14% | Purity (%) ([1]; 80° C. (open), 1 day): 95.39% | Crystal form ([1]; 80° C. (open), 1 day, XRPD): changed | Crystal form ([1]; 80° C., 1 day, listed as API): changed | Degradation ([1]; 80° C., 1 day, listed as API): 0.14% | Purity ([1]; 80° C., 1 day, listed as API): 95.39% | Degradation (%) ([1]; Light contral, 10 days): 0.02% | Purity (%) ([1]; Light contral, 10 days): 95.51% | Crystal form ([1]; Light contral, 10 days, XRPD): Unchanged | Crystal form ([1]; Light control, 10 days): Unchanged | Degradation [1, 9]: 0.02% | Purity [1, 9]: 95.51% | Degradation (%) ([1]; Light exposure, 10 days): 7.89% | Purity (%) ([1]; Light exposure, 10 days): 88.14% | Crystal form ([1]; Light exposure, 10 days, XRPD): changed | Crystal form [1, 10]: changed | Degradation [1, 10]: 7.89% | Purity [1, 10]: 88.14% | Purity (%) ([1]; initial): 95.53% | Purity ([1]; initial, listed as API): 95.53% | Degradation ([1]; light exposure and 40° C., 75% RH): varying degrees of degradation | solid crystal form obtained by competitive pulping ([2]; API and Form B together in DCM, 50° C., 3 days, XRPD): tended to approach Form L | appearance after competitive pulping ([2]; API and Form B together in DCM, after 5 days of beating): became oily | crystal form obtained by competitive pulping ([2]; API and Form B together in water, 50° C., 3 days, XRPD): a mixture of Form B and API | XRPD results ([2]; competitive pulping of API and Form B, DCM, 50° C., 3 days): Form K | moisture absorption weight gain [3]: 1.05% | moisture absorption weight gain ([3]; listed as API): 11.12% | hygroscopicity [3]: slight hygroscopicity | solubility at 2 h ([4]; buffer solution pH 1.2, 37 °C, pH 1.2, simulated gastric fluid, medium pH 1.2, 2 h): > 10000 µg/mL | solubility at 24 h ([4]; buffer solution pH 1.2, 37 °C, pH 1.2, simulated gastric fluid, medium pH 1.2, 24 h): > 10000 µg/mL | solubility at 2 h ([4]; buffer solution pH 3.0, 37 °C, pH 3, aqueous buffer, medium pH 3.0, 2 h): > 10000 µg/mL | solubility at 24 h ([4]; buffer solution pH 3.0, 37 °C, pH 3, aqueous buffer, medium pH 3.0, 24 h): > 10000 µg/mL | solubility at 2 h ([4]; buffer solution pH 4.5, 37 °C, pH 4.5, aqueous buffer, medium pH 4.5, 2 h): > 10000 µg/mL
SMILES: CCc1nc2c(N)ncc(-c3ccc(N4CCC(N5CCN(CC)CC5)CC4)c(OC)c3)c2nc1NC1CCOCC1 [Free base Form A, 3-ethyl-8-(4-(4-(4-ethylpiperazin-1-yl)piperidin-1-yl)-3-methoxyphenyl)-N2-(tetrahydro-2H-pyran-4-yl) pyridino [3,4-b]pyrazine-2,5-diamine]
